# Activity calls are given as the source filed them. The rule behind the calls is not given here.
# Tests used:
# [1] = target: T1, Protein cereblon/Interleukin-1 receptor-associated kinase 4 (Homo sapiens, UniProt Q9NWZ3+Q96SW2); experiment: PROTAC activity at CRBN/IRAK4 in human THP-1 cells assessed as induction of IRAK4 degradation incubated for 24 hrs by HiBiT lytic reagent based analysis; type: cell-based
# [2] = target: T1, Protein cereblon/Interleukin-1 receptor-associated kinase 4; experiment: PROTAC activity at CRBN/IRAK4 in human THP-1 cells assessed as induction of IRAK4 degradation incubated for 24 hrs by HiBiT lytic reagent based analysis relative to control; type: cell-based
# [3] = Metabolic stability in dog liver microsome assessed as half life at 1 uM measured up to 60 mins in presence of NADPH by LC-MS/MS analysis; type: ADME, Canis lupus familiaris; details: liver microsomes
# hERG (KCNH2) = hERG (KCNH2) (Homo sapiens, UniProt Q12809); experiment: Inhibition of hERG expressed in HEK293 cells at 3 uM by manual patch clamp assay relative to control; type: toxicity, cell-based; details: HEK293 cells expressing hERG
# Sequence of hERG (KCNH2) (Q12809 whole entry): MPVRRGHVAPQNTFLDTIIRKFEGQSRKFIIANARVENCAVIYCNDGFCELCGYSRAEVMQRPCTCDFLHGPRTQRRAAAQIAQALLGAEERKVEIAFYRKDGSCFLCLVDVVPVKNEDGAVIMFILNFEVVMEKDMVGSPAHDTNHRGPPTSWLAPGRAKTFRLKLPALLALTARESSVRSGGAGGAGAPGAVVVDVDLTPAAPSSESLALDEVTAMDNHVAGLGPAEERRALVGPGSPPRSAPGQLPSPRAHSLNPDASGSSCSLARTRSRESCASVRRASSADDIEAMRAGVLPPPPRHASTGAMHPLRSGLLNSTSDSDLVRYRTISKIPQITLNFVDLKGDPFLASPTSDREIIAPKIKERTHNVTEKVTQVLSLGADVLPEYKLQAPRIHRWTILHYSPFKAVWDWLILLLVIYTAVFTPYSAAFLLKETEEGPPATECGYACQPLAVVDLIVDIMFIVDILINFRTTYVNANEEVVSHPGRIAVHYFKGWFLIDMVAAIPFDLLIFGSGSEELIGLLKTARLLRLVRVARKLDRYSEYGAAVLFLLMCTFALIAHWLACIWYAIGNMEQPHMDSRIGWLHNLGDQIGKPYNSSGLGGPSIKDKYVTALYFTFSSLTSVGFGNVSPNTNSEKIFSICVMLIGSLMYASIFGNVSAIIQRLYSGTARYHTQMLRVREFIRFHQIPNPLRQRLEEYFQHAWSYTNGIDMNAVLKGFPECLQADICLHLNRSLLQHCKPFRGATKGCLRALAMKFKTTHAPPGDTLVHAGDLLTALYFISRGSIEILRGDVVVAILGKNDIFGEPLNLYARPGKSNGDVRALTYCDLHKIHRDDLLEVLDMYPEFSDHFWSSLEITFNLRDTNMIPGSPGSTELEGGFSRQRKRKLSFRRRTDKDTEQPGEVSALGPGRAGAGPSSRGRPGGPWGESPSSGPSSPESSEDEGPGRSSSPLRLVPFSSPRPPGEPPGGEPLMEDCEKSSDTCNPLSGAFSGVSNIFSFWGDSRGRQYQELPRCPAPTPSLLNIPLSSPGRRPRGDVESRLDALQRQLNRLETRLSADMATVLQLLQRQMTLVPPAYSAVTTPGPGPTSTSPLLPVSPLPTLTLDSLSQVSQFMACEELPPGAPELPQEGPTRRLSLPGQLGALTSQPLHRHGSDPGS
# [4] = Metabolic stability monkey hepatocyte assessed as half life at 1 uM measured up to 120 mins by LC-MS/MS analysis; type: ADME, cell-based, Macaca mulatta; details: rhesus monkey, hepatocytes
# [5] = Metabolic stability mouse hepatocyte assessed as half life at 1 uM measured up to 120 mins by LC-MS/MS analysis; type: ADME, cell-based; details: hepatocytes
# [6] = Permeability across apical to basal side in human Caco-2 cells incubated for 120 mins by LC-MS/MS analysis; type: ADME, cell-based; details: read-out: permeability
# [7] = Kinetic solubility of compound in PBS buffer at pH 7.4 incubated for 2 hr by LC-MS analysis; type: physicochemical; details: read-out: Kinetic_solubility
# [8] = Kinetic solubility of compound in FaSSIF at pH 6.5 incubated for 2 hr by LC-MS analysis; type: physicochemical; details: read-out: Kinetic_solubility
# [9] = Plasma protein binding in human assessed as unbound fraction incubated for 2 hrs by rapid equilibrium dialysis; type: ADME, cell-free
# [10] = Plasma protein binding in mouse assessed as unbound fraction incubated for 2 hrs by rapid equilibrium dialysis; type: ADME, cell-free
# [11] = Cmax in male C57BL/6 mouse at 2 mg/kg, iv measured up to 24 hrs by LC-MS/MS analysis; type: ADME, organism-based; details: in vivo
# [12] = Half life in male C57BL/6 mouse at 2 mg/kg, iv measured up to 24 hrs by LC-MS/MS analysis; type: ADME, organism-based; details: in vivo
# [13] = Half life in male C57BL/6 mouse at 10 mg/kg, po measured up to 24 hrs by LC-MS/MS analysis; type: ADME, organism-based; details: in vivo
# [14] = AUClast in Sprague-Dawley rat at 2 mg/kg, iv measured up to 24 hrs by LC-MS/MS analysis; type: ADME, organism-based; details: in vivo
# [15] = Tmax in Sprague-Dawley rat at 10 mg/kg, po measured up to 24 hrs by LC-MS/MS analysis; type: ADME, organism-based; details: in vivo
# [16] = Cmax in Sprague-Dawley rat at 10 mg/kg, po measured up to 24 hrs by LC-MS/MS analysis; type: ADME, organism-based; details: in vivo
# [17] = AUClast in Sprague-Dawley rat at 10 mg/kg, po measured up to 24 hrs by LC-MS/MS analysis; type: ADME, organism-based; details: in vivo
# [18] = Oral bioavailability in Sprague-Dawley rat at 10 mg/kg measured up to 24 hrs by LC-MS/MS analysis; type: ADME, organism-based; details: in vivo
# [19] = Cmax in Beagle dog at 2 mg/kg, iv measured up to 24 hrs by LC-MS/MS analysis; type: ADME, organism-based, Canis lupus familiaris; details: in vivo
# [20] = Half life in Beagle dog at 2 mg/kg, iv measured up to 24 hrs by LC-MS/MS analysis; type: ADME, organism-based, Canis lupus familiaris; details: in vivo
# [21] = Tmax in Beagle dog at 10 mg/kg, po measured up to 24 hrs by LC-MS/MS analysis; type: ADME, organism-based, Canis lupus familiaris; details: in vivo
# [22] = Half life in Beagle dog at 10 mg/kg, po measured up to 24 hrs by LC-MS/MS analysis; type: ADME, organism-based, Canis lupus familiaris; details: in vivo
# [23] = Volume of distribution at steady state in cynomolgus monkey at 1 mg/kg, iv measured up to 24 hrs by LC-MS/MS analysis; type: ADME, organism-based, Macaca fascicularis; details: in vivo, read-out: Vdss
# [24] = Tmax in cynomolgus monkey at 20 mg/kg, po measured up to 24 hrs by LC-MS/MS analysis; type: ADME, organism-based, Macaca fascicularis; details: in vivo
# [25] = Cmax in cynomolgus monkey at 20 mg/kg, po measured up to 24 hrs by LC-MS/MS analysis; type: ADME, organism-based, Macaca fascicularis; details: in vivo
# CYP2C9 = CYP2C9 (Homo sapiens, UniProt P11712); experiment: Inhibition of CYP2C9 in human liver microsome using diclofenac as substrate at 10 uM preincubated for 5 mins followed by NADPH addition and measured after 10 mins by LC-MS/MS analysis relative to control; type: ADME; details: human liver microsomes, probe diclofenac, time 15 min
# Sequence of CYP2C9 (P11712 whole entry): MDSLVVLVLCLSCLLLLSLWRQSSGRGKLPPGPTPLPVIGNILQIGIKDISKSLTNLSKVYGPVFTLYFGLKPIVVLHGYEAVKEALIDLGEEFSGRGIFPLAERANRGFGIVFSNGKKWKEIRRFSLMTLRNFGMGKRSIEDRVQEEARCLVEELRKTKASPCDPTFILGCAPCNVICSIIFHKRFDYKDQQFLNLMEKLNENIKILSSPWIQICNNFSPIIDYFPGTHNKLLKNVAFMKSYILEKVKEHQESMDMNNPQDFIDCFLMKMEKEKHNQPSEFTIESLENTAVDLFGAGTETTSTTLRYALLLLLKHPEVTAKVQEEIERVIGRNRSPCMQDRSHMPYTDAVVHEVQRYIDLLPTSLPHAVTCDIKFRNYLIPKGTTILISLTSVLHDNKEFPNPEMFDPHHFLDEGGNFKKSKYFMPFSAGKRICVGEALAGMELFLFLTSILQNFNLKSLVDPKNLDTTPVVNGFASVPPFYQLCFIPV
# CYP2C19 = CYP2C19 (Homo sapiens, UniProt P33261); experiment: Inhibition of CYP2C19 in human liver microsome using (S)-mephenytoin as substrate at 10 uM preincubated for 5 mins followed by NADPH addition and measured after 30 mins by LC-MS/MS analysis relative to control; type: ADME; details: human liver microsomes, probe (S)-mephenytoin, time 35 min
# Sequence of CYP2C19 (P33261 whole entry): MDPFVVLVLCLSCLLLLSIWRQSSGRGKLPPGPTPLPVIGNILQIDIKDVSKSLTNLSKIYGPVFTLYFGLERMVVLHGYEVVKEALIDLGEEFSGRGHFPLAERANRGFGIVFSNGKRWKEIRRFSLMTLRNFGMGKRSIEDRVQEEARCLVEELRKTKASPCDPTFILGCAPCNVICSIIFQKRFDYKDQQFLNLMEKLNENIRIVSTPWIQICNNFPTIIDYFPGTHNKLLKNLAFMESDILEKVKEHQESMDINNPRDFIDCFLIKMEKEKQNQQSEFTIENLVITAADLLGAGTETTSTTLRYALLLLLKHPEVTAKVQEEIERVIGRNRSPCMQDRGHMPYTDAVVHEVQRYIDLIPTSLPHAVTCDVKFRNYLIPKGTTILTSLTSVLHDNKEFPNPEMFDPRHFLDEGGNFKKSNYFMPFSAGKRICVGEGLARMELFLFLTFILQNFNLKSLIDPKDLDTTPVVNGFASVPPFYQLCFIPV
# CYP2D6 = CYP2D6 (Homo sapiens, UniProt P10635); experiment: Inhibition of CYP2D6 in human liver microsome using dextromethorphan as substrate at 10 uM preincubated for 5 mins followed by NADPH addition and measured after 10 mins by LC-MS/MS analysis relative to control; type: ADME; details: human liver microsomes, probe dextromethorphan, time 15 min
# Sequence of CYP2D6 (P10635 whole entry): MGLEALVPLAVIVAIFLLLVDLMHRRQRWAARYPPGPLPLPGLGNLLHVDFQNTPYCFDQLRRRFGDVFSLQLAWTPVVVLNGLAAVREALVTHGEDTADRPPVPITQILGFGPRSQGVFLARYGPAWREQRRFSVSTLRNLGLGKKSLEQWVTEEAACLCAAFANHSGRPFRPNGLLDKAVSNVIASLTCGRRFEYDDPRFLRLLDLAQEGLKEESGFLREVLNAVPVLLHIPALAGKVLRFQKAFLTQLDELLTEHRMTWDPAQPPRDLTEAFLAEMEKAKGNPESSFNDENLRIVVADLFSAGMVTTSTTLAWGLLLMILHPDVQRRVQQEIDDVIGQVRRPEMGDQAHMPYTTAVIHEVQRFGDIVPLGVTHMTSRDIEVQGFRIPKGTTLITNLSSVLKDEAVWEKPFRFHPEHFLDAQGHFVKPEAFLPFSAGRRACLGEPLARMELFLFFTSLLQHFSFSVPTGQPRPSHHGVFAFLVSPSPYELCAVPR
# CYP3A4 = CYP3A4 (Homo sapiens, UniProt P08684); experiment: Inhibition of CYP3A4 in human liver microsome using testosterone as substrate at 10 uM preincubated for 5 mins followed by NADPH addition and measured after 10 mins by LC-MS/MS analysis relative to control; type: ADME; details: human liver microsomes, probe testosterone, time 15 min
# Sequence of CYP3A4 (P08684 whole entry): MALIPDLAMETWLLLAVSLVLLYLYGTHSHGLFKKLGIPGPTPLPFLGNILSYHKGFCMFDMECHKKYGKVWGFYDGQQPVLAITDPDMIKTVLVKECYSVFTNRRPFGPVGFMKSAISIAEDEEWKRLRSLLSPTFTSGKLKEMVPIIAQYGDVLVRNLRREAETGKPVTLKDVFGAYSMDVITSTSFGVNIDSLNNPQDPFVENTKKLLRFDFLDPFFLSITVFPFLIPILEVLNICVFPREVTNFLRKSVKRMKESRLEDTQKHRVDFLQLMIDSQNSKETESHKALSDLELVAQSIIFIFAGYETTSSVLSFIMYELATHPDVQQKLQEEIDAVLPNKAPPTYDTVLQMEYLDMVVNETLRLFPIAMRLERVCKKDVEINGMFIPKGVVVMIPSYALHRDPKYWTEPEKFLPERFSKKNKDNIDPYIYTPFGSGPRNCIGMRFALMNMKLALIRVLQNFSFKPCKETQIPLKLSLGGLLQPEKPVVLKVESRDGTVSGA
# [26] = target: T2, Protein cereblon/Interleukin-1 receptor-associated kinase 4 (Mus musculus) (UniProt Q8C7D2+Q8R4K2); experiment: PROTAC activity at CRBN/IRAK4 in mouse PBMC cells assessed as induction of IRAK4 degradation incubated for 24 hrs by HiBiT lytic reagent based analysis relative to control; type: cell-based
# T2 sequence (Q8C7D2 whole entry, looked up): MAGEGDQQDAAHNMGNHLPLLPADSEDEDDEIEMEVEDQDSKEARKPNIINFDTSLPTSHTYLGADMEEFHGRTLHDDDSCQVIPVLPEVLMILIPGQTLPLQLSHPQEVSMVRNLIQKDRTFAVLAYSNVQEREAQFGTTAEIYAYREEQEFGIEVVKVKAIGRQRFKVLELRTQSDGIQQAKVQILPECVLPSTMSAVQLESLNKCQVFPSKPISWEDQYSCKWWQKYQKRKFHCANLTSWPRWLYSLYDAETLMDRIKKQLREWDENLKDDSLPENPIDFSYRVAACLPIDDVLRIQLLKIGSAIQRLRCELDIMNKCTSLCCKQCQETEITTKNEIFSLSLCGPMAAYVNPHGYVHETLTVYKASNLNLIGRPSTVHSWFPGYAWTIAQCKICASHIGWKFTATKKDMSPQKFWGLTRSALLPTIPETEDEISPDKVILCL
# T2 sequence (Q8R4K2 whole entry, looked up): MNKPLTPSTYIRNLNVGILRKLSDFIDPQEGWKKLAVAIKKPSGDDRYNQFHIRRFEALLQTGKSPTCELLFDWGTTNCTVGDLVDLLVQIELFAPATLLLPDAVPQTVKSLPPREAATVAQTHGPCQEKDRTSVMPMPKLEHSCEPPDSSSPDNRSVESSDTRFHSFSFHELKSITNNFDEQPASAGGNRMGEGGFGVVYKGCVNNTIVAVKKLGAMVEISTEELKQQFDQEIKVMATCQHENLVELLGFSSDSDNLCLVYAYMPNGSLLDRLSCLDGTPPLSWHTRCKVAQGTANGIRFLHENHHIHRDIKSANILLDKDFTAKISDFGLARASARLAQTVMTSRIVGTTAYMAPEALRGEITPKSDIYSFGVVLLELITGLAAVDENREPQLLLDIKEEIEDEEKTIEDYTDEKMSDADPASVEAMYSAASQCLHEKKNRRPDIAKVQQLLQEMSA
# [27] = target: Protein cereblon/Zinc finger protein Aiolos (Homo sapiens) (UniProt Q96SW2+Q9UKT9); experiment: PROTAC activity at CRBN/IKZF3 in human PBMC cells assessed as induction of SALL4 degradation at 1 uM by Western blot analysis; type: cell-based
# [28] = target: Protein cereblon/Interleukin-1 receptor-associated kinase 4 (Macaca fascicularis) (UniProt A0A2K5UTB3+A0A2K5V3Y9); experiment: PROTAC activity at CRBN/IRAK4 in cynomolgus monkey PBMC assessed as reduction in IRAK4 level measured at 48 hrs by immunoblotting analysis; type: cell-based; parameters: scale not given: the % may be the effect or the level left
# Sequence of Protein cereblon/Interleukin-1 receptor-associated kinase 4 (Macaca fascicularis) (A0A2K5UTB3 1-488): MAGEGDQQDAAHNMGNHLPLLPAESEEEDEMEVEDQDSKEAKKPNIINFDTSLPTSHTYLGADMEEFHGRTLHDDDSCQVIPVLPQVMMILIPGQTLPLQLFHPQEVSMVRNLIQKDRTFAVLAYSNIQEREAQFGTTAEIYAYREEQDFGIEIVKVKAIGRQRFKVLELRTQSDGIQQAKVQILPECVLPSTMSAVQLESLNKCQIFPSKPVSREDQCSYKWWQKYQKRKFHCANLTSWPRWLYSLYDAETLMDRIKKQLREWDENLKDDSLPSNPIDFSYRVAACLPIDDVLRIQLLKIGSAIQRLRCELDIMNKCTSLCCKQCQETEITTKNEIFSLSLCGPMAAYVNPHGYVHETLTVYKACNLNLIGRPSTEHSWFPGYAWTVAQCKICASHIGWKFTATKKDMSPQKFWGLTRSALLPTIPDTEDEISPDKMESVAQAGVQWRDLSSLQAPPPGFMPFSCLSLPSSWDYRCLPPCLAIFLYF
# Sequence of Protein cereblon/Interleukin-1 receptor-associated kinase 4 (Macaca fascicularis) (A0A2K5V3Y9 1-460 partner): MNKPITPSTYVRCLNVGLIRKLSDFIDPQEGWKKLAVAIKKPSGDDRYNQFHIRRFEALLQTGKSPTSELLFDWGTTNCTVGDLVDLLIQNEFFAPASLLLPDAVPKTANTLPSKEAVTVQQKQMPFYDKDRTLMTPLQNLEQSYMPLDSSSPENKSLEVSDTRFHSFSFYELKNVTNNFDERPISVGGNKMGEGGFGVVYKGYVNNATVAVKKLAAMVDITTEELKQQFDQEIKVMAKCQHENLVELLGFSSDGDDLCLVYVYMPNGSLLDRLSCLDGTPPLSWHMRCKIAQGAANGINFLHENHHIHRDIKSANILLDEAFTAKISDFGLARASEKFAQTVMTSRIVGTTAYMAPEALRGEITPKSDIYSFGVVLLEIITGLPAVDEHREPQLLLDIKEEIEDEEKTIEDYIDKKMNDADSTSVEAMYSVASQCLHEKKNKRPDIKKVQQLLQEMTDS
# Mus musculus [29] = experiment: Anti-psoriasis effect in IMQ-induced C57BL/6 mouse assessed as reduction in ear thickness at 100 mg/kg administered topically twice daily for 6 days and measured after 24 hrs; type: functional, organism-based; details: time 7.0 day
# [30] = target: T2, Protein cereblon/Interleukin-1 receptor-associated kinase 4 (Mus musculus); experiment: In-vivo PROTAC activity at C57BL/6 mouse assessed as reduction in IRAK4 level in spleen at 100 mg/kg, po measured after 24 hrs by Western blot analysis; type: functional, organism-based; parameters: scale not given: the % may be the effect or the level left
# Mus musculus [31] = experiment: Anti-arthritic activity against collagen-induced arthritis DBA/1 mouse model assessed as improvement in delta paw volume at 100 mg/kg, po administered for 14 days […]; type: functional, organism-based; details: time 14.0 day
smiles,measurement,setting,value
Cn1c(=O)n(C2CCC(=O)NC2=O)c2cccc(C#CCO[C@H]3CC[C@H](CN4CCC5(CC4)Cc4cc(NC(=O)c6coc7cccnc67)c(N6CCC(CO)CC6)cc4O5)CC3)c21 (stereo partly specified),DC50,[1],4.01 nM
same,Emax,[2],94%
same,half-life at 1 µM,[3],> 3.07 h
same,inhibition at 3 µM,hERG (KCNH2),53%
same,half-life at 1 µM,[4],> 6.18 h
same,half-life at 1 µM,[5],3.42 h
same,Papp A→B at 2 h,[6],0.09 ×10⁻⁶ cm/s
same,solubility kinetic at 2 h,[7],0.97 µg/mL
same,solubility kinetic at 2 h,[8],13.3 µg/mL
same,Fu,[9],< 0.08%
same,Fu,[10],0.09%
same,Cmax,[11],1870 ng/mL
same,half-life,[12],3.12 h
same,half-life,[13],4.34 h
same,AUClast,[14],25.89 ng·h/mL
same,Tmax,[15],6 h
same,Cmax,[16],613 ng/mL
same,AUClast,[17],7093 ng·h/mL
same,F,[18],18%
same,Cmax,[19],599 ng/mL
same,t1/2,[20],8.1 h
same,Tmax,[21],4 h
same,half-life,[22],10.6 h
same,Vd,[23],3.85 L/kg
same,Tmax,[24],6 h
same,Cmax,[25],229 ng/mL
same,"inhibition at 10 min, 10 µM",CYP2C9,13.9%
same,"inhibition at 0.5 h, 10 µM",CYP2C19,45.1%
same,"inhibition at 10 min, 10 µM",CYP2D6,13.8%
same,"inhibition at 10 min, 10 µM",CYP3A4,10.2%
same,Emax,[26],82%
same,Activity,[27],inactive
same,Activity,[28],83%
same,Activity,Mus musculus [29],Active
same,Activity,[30],> 80%
same,Activity,Mus musculus [31],Active

# — ChEMBL document CHEMBL6182949 (J Med Chem, 2025)
